# Results taken from patent publication US9315517B2, “Imidazol-piperidinyl derivatives as modulators of kinase activity” (Merck Patent GmbH, priority 2012, dated 2016).
# pIC50: −log10 of the molar value.
# Assays:
# [1] = target: T1, His-AKT (Full Length) (Homo sapiens, UniProt P31749); experiment: AKT enzyme assay; type: biochemical; settings: enzyme inhibition; 160 uM ATP, 90 min at 25° C., Caliper mobility shift
# T1 construct: 0.1 ng/μl His-AKT (Full Length); His; purchased Invitrogen P2999
# T1 sequence (P31749 whole entry): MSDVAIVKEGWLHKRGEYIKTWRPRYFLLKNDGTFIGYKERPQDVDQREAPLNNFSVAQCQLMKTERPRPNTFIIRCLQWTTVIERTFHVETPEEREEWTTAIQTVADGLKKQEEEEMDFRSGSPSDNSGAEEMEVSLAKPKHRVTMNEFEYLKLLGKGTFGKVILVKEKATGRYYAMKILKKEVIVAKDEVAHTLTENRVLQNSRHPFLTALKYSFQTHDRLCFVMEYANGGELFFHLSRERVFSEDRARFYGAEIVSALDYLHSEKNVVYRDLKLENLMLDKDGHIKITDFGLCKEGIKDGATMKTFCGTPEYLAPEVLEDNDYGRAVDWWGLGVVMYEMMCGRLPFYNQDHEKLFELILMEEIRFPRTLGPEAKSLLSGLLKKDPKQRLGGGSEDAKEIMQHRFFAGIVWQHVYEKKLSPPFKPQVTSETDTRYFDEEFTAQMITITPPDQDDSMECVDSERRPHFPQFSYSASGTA
# Experimental: (§1) The IC50 values reported for the compounds in the Experimental section were derived from the following protocol for the p70S6K and AKT enzyme assays.
# A TTP Mosquito liquid handling instrument was used to place 125 nl of the appropriate concentration of inhibitor in 100% DMSO (for a dose response curve calculation) into each well of a 384-well plate. To this reaction components were added to a final volume of 12.5 μl: • 0.1 ng/μl His-AKT (Full Length), (Invitrogen, Part # P2999, Lot # 641228C). • 160 uM ATP (Fluke, 02055) • 1 mM DTT (Sigma, D0632) • 1 mM MgCl2 (Sigma, M1028) • 1 μM substrate peptide (sequence FITC-AHA-GRPRTSSFAEG-NH2), synthesized by Tufts Peptide Synthesis service. • 100 mM HEPES pH 7.5 (Calbiochem, 391338) • 0.015% Brij-35 (Sigma, B4184)
# The reaction was incubated for 90 min at 25° C., and then stopped by the addition of 70 μl of Stop buffer (100 mM HEPES pH 7.5, 0.015% Brij-35, 10 mM EDTA (Sigma, E7889)).
# The plate was read on a Caliper LC 3000 in an Off-Chip mobility shift assay format, using the following parameters for a 12-sipper chip: screening pressure −2.3 psi, upstream voltage −500, and downstream voltage −3000. These conditions caused unphosphorylated substrate and phosphorylated product peptide to resolve as separate peaks allowing direct measurement of percentage of conversion of substrate to product. The percent conversion was plotted against concentration of inhibitor to produce a sigmoidal dose response curve, from which an IC50 was calculated.
# [2] = target: T2, P70S6K (T412E mutant, Millipore) (Homo sapiens, UniProt P23443, T412E); experiment: P70S6K enzyme assay; type: biochemical; settings: enzyme inhibition; 24 μM ATP, 90 min at 25° C., Caliper mobility shift
# T2 construct: purchased Millipore
# T2 sequence (P23443 whole entry T412E): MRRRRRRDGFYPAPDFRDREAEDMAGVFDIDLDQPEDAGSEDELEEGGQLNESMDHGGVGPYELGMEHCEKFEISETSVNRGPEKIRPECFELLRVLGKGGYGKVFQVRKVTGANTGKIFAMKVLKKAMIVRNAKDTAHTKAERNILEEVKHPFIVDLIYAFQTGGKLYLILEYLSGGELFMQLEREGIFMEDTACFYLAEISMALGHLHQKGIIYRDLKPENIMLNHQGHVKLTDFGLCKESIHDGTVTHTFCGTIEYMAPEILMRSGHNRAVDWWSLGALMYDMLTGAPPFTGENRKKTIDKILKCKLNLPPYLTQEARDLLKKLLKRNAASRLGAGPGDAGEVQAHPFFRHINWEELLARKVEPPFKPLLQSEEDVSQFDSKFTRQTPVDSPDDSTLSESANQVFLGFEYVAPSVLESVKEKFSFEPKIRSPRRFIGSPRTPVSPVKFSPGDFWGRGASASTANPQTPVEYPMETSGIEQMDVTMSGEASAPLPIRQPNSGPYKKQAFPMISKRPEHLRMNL
# Experimental: as §1
# P70S6K inhibitor compounds were diluted and plated in 96 well plates. A reaction mixture including the following components was then added to the compound plate to initiate the enzyme reaction; P70S6K (3 nM, T412E mutant, Millipore) was mixed with 24 μM ATP in an assay buffer containing 100 mM Hepes (pH 7.5), 5 mM MgCl2, 1 mM DTT, 0.015% Brij and 1 μM of the substrate peptide FITC-AHA-AKRRRLSSLRA-OH (derived from the S6 ribosomal protein sequence, FITC=fluorescein isothiocyanate, AHA=6-aminohexanoic acid). The reaction was incubated for 90 min at 25° C., before the addition of 10 mM EDTA to stop the reaction. The proportion of substrate and product (phosphorylated) peptide was analysed on a Caliper Life Sciences Lab Chip 3000, using a pressure of −1.4 psi, and upstream and downstream voltages of −3000 and −700 respectively. Product peaks were resolved before substrate peaks on the resulting chromatograms.
Structure (SMILES),pIC50 [1],pIC50 [2]
"Fc1ccc(-c2cn(CCN3CCC3)c(C3CCN(c4ncnc5c4OCCN5)CC3)n2)cc1C(F)(F)F [Compound A1, 4-(4-(1-(2-(azetidin-1-yl)ethyl)-4-(4-fluoro-3-(trifluoromethyl)phenyl)-1H-imidazol-2-yl)piperidin-1-yl)-7,8-dihydro-6H-pyrimido[5,4-b][1,4]oxazine]",> 7.60,> 7.60
"FC(F)(F)c1cc(-c2cn(CCN3CCC3)c(C3CCN(c4ncnc5c4OCCN5)CC3)n2)ccn1 [Compound A2, 4-(4-(1-(2-(azetidin-1-yl)ethyl)-4-(2-(trifluoromethyl)pyridin-4-yl)-1H-imidazol-2-yl)piperidin-1-yl)-7,8-dihydro-6H-pyrimido[5,4-b][1,4]oxazine]",7.00 to 7.59,> 7.60
"CN(C)CCn1cc(-c2ccc(F)c(C(F)(F)F)c2)nc1C1CCN(c2ncnc3c2CCN3)CC1 [Compound A3, 2-(2-(1-(6,7-dihydro-5H-pyrrolo[2,3-d]pyrimidin-4-yl)piperidin-4-yl)-4-(4-fluoro-3-(trifluoromethyl)phenyl)-1H-imidazol-1-yl)-N,N-dimethylethanamine]",> 7.60,> 7.60
"CN(C)CCn1cc(-c2ccc(F)c(C(F)(F)F)c2)nc1C1CCN(c2ccnc3c2CCCN3)CC1 [Compound A5, 2-(4-(4-fluoro-3-(trifluoromethyl)phenyl)-2-(1-(5,6,7,8-tetrahydro-1,8-naphthyridin-4-yl)piperidin-4-yl)-1H-imidazol-1-yl)-N,N-dimethylethanamine]",7.00 to 7.59,> 7.60
"CN(C)CCn1cc(-c2ccc(F)c(C(F)(F)F)c2)nc1C1CCN(c2ncnc3c2OCCN3)CC1 [Compound A6, {2-[2-[1-(7,8-Dihydro-6H-pyrimido[5,4-b][1,4]oxazin-4-yl)-piperidin-4-yl]-4-(4-fluoro-3-trifluoromethyl-phenyl)-imidazol-1-yl]-ethyl}-dimethylamine]",> 7.60,> 7.60
"Cc1cc(-c2cn(CCN(C)C)c(C3CCN(c4ncnc5c4OCCN5)CC3)n2)ccc1F [Compound A7, {2-[2-[1-(7,8-Dihydro-6H-pyrimido[5,4-b][1,4]oxazin-4-yl)-piperidin-4-yl]-4-(4-fluoro-3-methyl-phenyl)-imidazol-1-yl]-ethyl}-dimethylamine]",7.00 to 7.59,> 7.60
"COc1cc(-c2cn(CCN(C)C)c(C3CCN(c4ncnc5c4OCCN5)CC3)n2)ccc1F [Compound A8, {2-[2-[1-(7,8-Dihydro-6H-pyrimido[5,4-b][1,4]oxazin-4-yl)-piperidin-4-yl]-4-(4-fluoro-3-methoxy-phenyl)-imidazol-1-yl]-ethyl}-dimethylamine]",> 7.60,> 7.60
"CN(C)CCn1cc(-c2ccc(F)c(Cl)c2)nc1C1CCN(c2ncnc3c2OCCN3)CC1 [Compound A9, (2-{4-(3-Chloro-4-fluoro-phenyl)-2-[1-(7,8-dihydro-6H-pyrimido[5,4-b][1,4]oxazin-4-yl)-piperidin-4-yl]-imidazol-1-yl}-ethyl)-dimethylamine]",> 7.60,> 7.60
"CN(C)CCn1cc(-c2ccnc(C(F)(F)F)c2)nc1C1CCN(c2ncnc3c2OCCN3)CC1 [Compound A10, {2-[2-[1-(7,8-Dihydro-6H-pyrimido[5,4-b][1,4]oxazin-4-yl)-piperidin-4-yl]-4-(2-trifluoromethyl-pyridin-4-yl)-imidazol-1-yl]-ethyl}-dimethylamine]",7.00 to 7.59,> 7.60
"Cc1cc(-c2cn(CCN3CCC3)c(C3CCN(c4ncnc5c4OCCN5)CC3)n2)ccc1F [Compound A11, 4-{4-[1-(2-Azetidin-1-yl-ethyl)-4-(4-fluoro-3-methyl-phenyl)-1H-imidazol-2-yl]-piperidin-1-yl}-7,8-dihydro-6H-pyrimido[5,4-b][1,4]oxazine]",> 7.60,> 7.60
"Fc1ccc(-c2cn(CCN3CCC3)c(C3CCN(c4ncnc5c4OCCN5)CC3)n2)cc1Cl [Compound A13, 4-{4-[1-(2-Azetidin-1-yl-ethyl)-4-(3-chloro-4-fluoro-phenyl)-1H-imidazol-2-yl]-piperidin-1-yl}-7,8-dihydro-6H-pyrimido[5,4-b][1,4]oxazine]",> 7.60,> 7.60
"CN(C)CCn1cc(-c2ccc(F)c(C(F)(F)F)c2)nc1C1CCN(c2ncnc3c2CCC3)CC1 [Compound A14, {2-[2-[1-(6,7-Dihydro-5H-cyclopentapyrimidin-4-yl)-piperidin-4-yl]-4-(4-fluoro-3-trifluoromethyl-phenyl)-imidazol-1-yl]-ethyl}-dimethylamine]",7.00 to 7.59,> 7.60
"Cc1cc(-c2cn(CCN(C)C)c(C3CCN(c4ncnc5c4CCC5)CC3)n2)ccc1F [Compound A15, {2-[2-[1-(6,7-Dihydro-5H-cyclopentapyrimidin-4-yl)-piperidin-4-yl]-4-(4-fluoro-3-methyl-phenyl)-imidazol-1-yl]-ethyl}-dimethylamine]",6.30 to 7.00,> 7.60
"COc1cc(-c2cn(CCN(C)C)c(C3CCN(c4ncnc5c4CCC5)CC3)n2)ccc1F [Compound A16, {2-[2-[1-(6,7-Dihydro-5H-cyclopentapyrimidin-4-yl)-piperidin-4-yl]-4-(4-fluoro-3-methoxy-phenyl)-imidazol-1-yl]-ethyl}-dimethylamine]",7.00 to 7.59,> 7.60
"CN(C)CCn1cc(-c2ccc(F)c(Cl)c2)nc1C1CCN(c2ncnc3c2CCC3)CC1 [Compound A17, (2-{4-(3-Chloro-4-fluoro-phenyl)-2-[1-(6,7-dihydro-5H-cyclopentapyrimidin-4-yl)-piperidin-4-yl]-imidazol-1-yl}-ethyl)-dimethylamine]",7.00 to 7.59,> 7.60
"CN(C)CCn1cc(-c2ccnc(C(F)(F)F)c2)nc1C1CCN(c2ncnc3c2CCC3)CC1 [Compound A18, {2-[2-[1-(6,7-Dihydro-5H-cyclopentapyrimidin-4-yl)-piperidin-4-yl]-4-(2-trifluoromethyl-pyridin-4-yl)-imidazol-1-yl]-ethyl}-dimethylamine]",6.30 to 7.00,7.00 to 7.59
"Fc1ccc(-c2cn(CCN3CCC3)c(C3CCN(c4ncnc5c4CCC5)CC3)n2)cc1Cl [Compound A19, 4-{4-[1-(2-Azetidin-1-yl-ethyl)-4-(3-chloro-4-fluoro-phenyl)-1H-imidazol-2-yl]-piperidin-1-yl}-6,7-dihydro-5H-cyclopentapyrimidine]",> 7.60,> 7.60
"Fc1ccc(-c2cn(CCN3CCC3)c(C3CCN(c4ncnc5c4CCC5)CC3)n2)cc1C(F)(F)F [Compound A20, 4-{4-[1-(2-Azetidin-1-yl-ethyl)-4-(4-fluoro-3-trifluoromethyl-phenyl)-1H-imidazol-2-yl]-piperidin-1-yl}-6,7-dihydro-5H-cyclopentapyrimidine]",> 7.60,> 7.60
"Cc1cc(-c2cn(CCN3CCC3)c(C3CCN(c4ncnc5c4CCC5)CC3)n2)ccc1F [Compound A21, 4-{4-[1-(2-Azetidin-1-yl-ethyl)-4-(4-fluoro-3-methyl-phenyl)-1H-imidazol-2-yl]-piperidin-1-yl}-6,7-dihydro-5H-cyclopentapyrimidine]",> 7.60,> 7.60
"COc1cc(-c2cn(CCN3CCC3)c(C3CCN(c4ncnc5c4CCC5)CC3)n2)ccc1F [Compound A22, 4-{4-[1-(2-Azetidin-1-yl-ethyl)-4-(4-fluoro-3-methoxy-phenyl)-1H-imidazol-2-yl]-piperidin-1-yl}-6,7-dihydro-5H-cyclopentapyrimidine]",> 7.60,> 7.60
"FC(F)(F)c1cc(-c2cn(CCN3CCC3)c(C3CCN(c4ncnc5c4CCC5)CC3)n2)ccn1 [Compound A23, 4-{4-[1-(2-Azetidin-1-yl-ethyl)-4-(2-trifluoromethyl-pyridin-4-yl)-1H-imidazol-2-yl]-piperidin-1-yl}-6,7-dihydro-5H-cyclopentapyrimidine]",7.00 to 7.59,> 7.60
"Cc1cc(-c2cn(CCN(C)C)c(C3CCN(c4ncnc5c4CCN5)CC3)n2)ccc1F [Compound A24, {2-[2-[1-(6,7-Dihydro-5H-pyrrolo[2,3-d]pyrimidin-4-yl)-piperidin-4-yl]-4-(4-fluoro-3-methyl-phenyl)-imidazol-1-yl]-ethyl}-dimethylamine]",> 7.60,> 7.60
